From patent publication US7683064B2, “Inhibitors of Bruton's tyrosine kinase” (Roche Palo Alto LLC, priority 2008, dated 2010) come the findings set out here.

Broadly, the IC50 is the midpoint of a concentration-inhibition curve. Higher therefore signals weaker potency.

SMILES strings stand for the structures.

In the experiment the target is T1, Btk enzyme (His-tagged, full-length) (Homo sapiens, UniProt Q06187).
T1 construct: 5-10 nM Btk enzyme (His-tagged, full-length); His tag
T1 sequence (Q06187 whole entry): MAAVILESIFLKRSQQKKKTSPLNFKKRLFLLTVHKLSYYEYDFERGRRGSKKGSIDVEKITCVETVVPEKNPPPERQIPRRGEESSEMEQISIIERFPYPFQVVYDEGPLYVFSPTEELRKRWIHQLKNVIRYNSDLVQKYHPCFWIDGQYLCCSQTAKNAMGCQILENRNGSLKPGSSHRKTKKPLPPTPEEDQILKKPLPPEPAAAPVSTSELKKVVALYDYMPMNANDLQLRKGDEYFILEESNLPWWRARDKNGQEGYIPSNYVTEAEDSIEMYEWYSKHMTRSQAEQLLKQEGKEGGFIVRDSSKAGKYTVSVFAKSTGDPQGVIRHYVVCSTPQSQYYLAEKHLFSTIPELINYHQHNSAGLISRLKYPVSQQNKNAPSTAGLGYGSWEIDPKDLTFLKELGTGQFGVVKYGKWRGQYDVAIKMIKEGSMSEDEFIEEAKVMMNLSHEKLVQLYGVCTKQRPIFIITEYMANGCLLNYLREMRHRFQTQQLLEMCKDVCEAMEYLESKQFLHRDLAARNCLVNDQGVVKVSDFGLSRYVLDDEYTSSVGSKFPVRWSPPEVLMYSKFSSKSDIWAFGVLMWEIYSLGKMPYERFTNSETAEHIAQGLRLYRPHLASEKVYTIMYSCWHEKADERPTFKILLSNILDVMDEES
The experiment is described as follows: Bruton's Tyrosine Kinase (Btk) inhibition assay, 33P filtration capture. Conditions: 100 μM ATP, 30 μM biotinylated SH2 peptide substrate, 5-10 nM Btk, 30 min at 30° C. Type of experiment: biochemical. From the text:
The assay is a capture of radioactive ^33P phosphorylated product through filtration. The interactions of Btk, biotinylated SH2 peptide substrate (Src homology), and ATP lead to phosphorylation of the peptide substrate. Biotinylated product is bound streptavidin sepharose beads. All bound, radiolabeled products are detected by scintillation counter.
Plates assayed are 96-well polypropylene (Greiner) and 96-well 1.2 μm hydrophilic PVDF filter plates (Millipore). Concentrations reported here are final assay concentrations: 10-100 μM compounds in DMSO (Burdick and Jackson), 5-10 nM Btk enzyme (His-tagged, full-length), 30 μM peptide substrate (Biotin-Aca-[…]-NH2), 100 μM ATP (Sigma), 8 mM imidazole (Sigma, pH 7.2), 8 mM glycerol-2-phosphate (Sigma), 200 μM EGTA (Roche Diagnostics), 1 mM MnCl2 (Sigma), 20 mM MgCl2 (Sigma), 0.1 mg/ml BSA (Sigma), 2 mM DTT (Sigma), 1 μCi ^33P ATP (Amersham), 20% streptavidin sepharose beads (Amersham), 50 mM EDTA (Gibco), 2 M NaCl (Gibco), 2 M NaCl w/1% phosphoric acid (Gibco), microscint-20 (Perkin Elmer).
IC50 determinations are calculated from 10 data points per compound utilizing data produced from a standard 96-well plate assay template. One control compound and seven unknown inhibitors were tested on each plate and each plate was run twice. Typically, compounds were diluted in half-log starting at 100 μM and ending at 3 nM. The control compound was staurosporine. Background was counted in the absence of peptide substrate. Total activity was determined in the presence of peptide substrate. The following protocol was used to determine Btk inhibition.
1) Sample preparation: The test compounds were diluted at half-log increments in assay buffer (imidazole, glycerol-2-phosphate, EGTA, MnCl2, MgCl2, BSA).
• a.) rinse beads by centrifuging at 500 g • b.) reconstitute the beads with PBS and EDTA to produce a 20% bead slurry 3) Pre-incubate reaction mix without substrate (assay buffer, DTT, ATP, ^33P ATP) and mix with substrate (assay buffer, DTT, ATP, ^33P ATP, peptide substrate) 30° C. for 15 min. 4) To start assay, pre-incubate 10 μL Btk in enzyme buffer (imidazole, glycerol-2-phos-phate, BSA) and 10 μL of test compounds for 10 min at RT. 5) Add 30 μL reaction mixture without or with substrate to Btk and compounds. 6) Incubate 50 μL total assay mix for 30 min at 30° C. 7) Transfer 40 μL of assay to 150 μL bead slurry in filter plate to stop reaction. 8) Wash filter plate after 30 min, with following steps • a. 3×250 μL NaCl • b. 3×250 μL NaCl containing 1% phosphoric acid • c.
`Cc1c(-c2cc(Nc3ccc(C(=O)N4CCOCC4)cn3)c(=O)n(C)c2)cccc1-c1c[nH]c2cc(N(C)C)ccc2c1=O` [II-2, 7-Dimethylamino-3-(2-methyl-3-{1-methyl-5-[5-(morpholine-4-carbonyl)-pyridin-2-ylamino]-6-oxo-1,6-dihydro-pyridin-3-yl}-phenyl)-1H-quinolin-4-one] yielded an IC50 of 370 nM.
Molecule `CN(C)c1ccc2c(=O)n(-c3cccc(-c4cc(Nc5ccc(C(=O)N6CCOCC6)cn5)c(=O)n(C)c4)c3)ccc2c1` [III-1, 6-Dimethylamino-2-(3-{1-methyl-5-[5-(morpholine-4-carbonyl)-pyridin-2-ylamino]-6-oxo-1,6-dihydro-pyridin-3-yl}-phenyl)-2H-isoquinolin-1-one] registered an IC50 of 1080 nM.
As for `Cc1c(-c2cc(Nc3ccc(C(=O)N4CCOCC4)cn3)c(=O)n(C)c2)cccc1-n1ccc2cc(N(C)C)ccc2c1=O` [III-2, 6-Dimethylamino-2-(2-methyl-3-{1-methyl-5-[5-(morpholine-4-carbonyl)-pyridin-2-ylamino]-6-oxo-1,6-dihydro-pyridin-3-yl}-phenyl)-2H-isoquinolin-1-one], the figure is 2760 nM; as for `CN(C)c1ccc2c(c1)CCN(c1cccc(-c3cc(Nc4ccc(C(=O)N5CCOCC5)cn4)c(=O)n(C)c3)c1)C2=O` [Example I-1, 6-Dimethylamino-2-(3-{1-methyl-5-[5-(morpholine-4-carbonyl)-pyridin-2-ylamino]-6-oxo-1,6-dihydro-pyridin-3-yl}-phenyl)-3,4-dihydro-2H-isoquinolin-1-one], 420 nM; as for `CN(C)c1ccc2c(c1)CCN(c1cccc(-c3cc(Nc4ccc(C(=O)N5CCOCC5)cn4)c(=O)n(C)c3)c1CO)C2=O` [Example I-2, 6-Dimethylamino-2-(2-hydroxymethyl-3-{1-methyl-5-[5-(morpholine-4-carbonyl)-pyridin-2-ylamino]-6-oxo-1,6-dihydro-pyridin-3-yl}-phenyl)-3,4-dihydro-2H-isoquinolin-1-one], 40 nM.
